Test results reported in patent US20160367497A1, “METHODS AND COMPOSITIONS FOR TREATING NEUROPATHIES” (Washington University, priority 2007, published 2016).

Experiments:
[1] = test system: DRG neuronal explant cultures; experiment: in vitro Wallerian degeneration assay, DRG explant neurite transection; assay type: cell-based, mouse
Description: To identify the mechanism of delayed axonal degeneration mediated by the Wlds protein, we employed an in-vitro Wallerian degeneration model. Primary DRG explant neurons were infected with lentivirus expressing the appropriate proteins, and axons were injured by either removal of the neuronal cell body (transection) or growth in vincristine (toxic).
Mouse DRG explants from E12.5 embryos were cultured in the presence of 1 nM nerve growth factor. Non-neuronal cells were removed from the cultures by adding 5-fluorouracil to the culture medium. Transection of neurites was performed at 10-20 DIV using an 18-gauge needle to remove the neuronal cell bodies. Incubation with β-nicotinamide adenine dinucleotide (Sigma) or Sirtinol (Calbiochem) was performed using conditions indicated in the text or figures.
Quantitative analysis of axonal degeneration was performed as previously described (Zhai, et al., Neuron 39:217-25, 2003). Briefly, the cultures were examined using phase contrast microscopy at the indicated times. Axons with a fragmented, non-refractile appearance were designated as “degenerated.” At each time point, at least 200 singly distinguishable axons were blindly scored from several randomly taken images of each culture. Each condition was tested in triplicate explants in each experiment. Results were obtained from 2-4 independent experiments for each condition. Statistical analysis was performed by Student's T test. For calculations of neurite-covered area, digitally captured images from quadruplicate samples of two independent experiments were analyzed using analysis 3.1 software (Soft Imaging System, Lakewood, Colo.).
Cell culture, in vitro axotomy, and quantification of axonal degeneration. Mouse DRG explants from E12.5 embryos were cultured in the DMEM containing 10% FCS and 1 nM nerve growth factor. Non-neuronal cells were removed from the cultures by adding 5-fluorouracil to the culture media. Transection of neurites was performed at 14-21 DIV using an 18-gauge needle to remove the neuronal cell bodies. Lentiviral expression vectors were generated. Lentiviral infection was performed 3-7 days prior to axonal transection for 24 hr. Quantitative analysis of neurite degeneration was performed.

AMPK = AMPK and ACC phosphorylation in DRG sensory neurons; assay type: cell-based, mouse; conditions: for effect on resveratrol-induced AMPK phosphorylation: DRG neurons, resveratrol 10 μM, 2 h
From the text: (A) Embryonic DRG neurons from Lkb1 flox/flox mice were infected with lentivirus expressing Cre recombinase (FCIV-Cre) or GFP only (FUGW control). Lentiviral infection was monitored by GFP fluorescence (A). […] Lkb1 flox/flox DRG neurons were infected with FUGW or FCIV-Cre and treated as indicated. AMPK or ACC was immunoprecipitated from neuronal lysates and western blots were probed with the respective phospho-specific antibodies. […] No inhibition of AMPK or ACC phosphorylation was observed by treatment with SIRT1 or CaMKKβ inhibitors. Lysate from AICAR treated DRG neurons was included as a positive control. (E, F) Embryonic DRG neurons were cultured from wild type and SIRT1-deficient littermates derived from SIRT1 heterozygous matings. […] Levels of total AMPK and ACC are shown in the bottom panels of C, D, E and F. Densitometric analysis of changes in levels of phospho AMPK (G) and phospho ACC (H) in SIRT1+/+ and SIRT1−/− DRG neurons in presence and absence of resveratrol is shown. Note: Resv, resveratrol.
Cell culture and Reagents. Neuro2 cells obtained from ATCC were grown in MEM with 1.5 g/L sodium bicarbonate, 0.1 mM nonessential amino acids, 0.1 mM sodium pyruvate, 2 mM L-glutamine with 10% FCS. For differentiation, cells were switched to serum-starvation medium (containing 0.2% FCS). For neurite outgrowth measurements, experiments were done in quadruplicate and 100 neurites per well were randomly measured using the Metamorph software. Dorsal root ganglia sensory and cortical neurons were established from E13.5 mouse embryos, maintained in neurobasal medium supplemented with B27 (and NGF for DRG neurons) and infected with lentiviruses as described (Araki et al., 2004, Science 305:1010-1013; Hawley et al., 2005, Cell Metab 2:21-23). Resveratrol was a gift from Sirtris Pharmaceuticals (Cambridge Mass.) and AICAR was obtained from Toronto Research (North York, Canada). Splitomycin and Compound C were purchased from Biomol (Plymouth Meeting, Pa.) and Calbiochem (San Diego, Calif.). Sirtinol and nicotinamide were purchased from Sigma (Saint Louis, Mo.)
Plasmids and viruses. The dominant negative (dnAMPK) and constitutively active (caAMPK) plasmids were gifts from Russell Jones (University of Pennsylvania, Philadelphia Pa.), and pCXN-Cre was a gift of Inder Verma (Salk Institute, San Diego, Calif.). All constructs were subcloned into the lentiviral shuttle vector FCIV and verified by nucleotide sequence analysis. Viruses were prepared as previously described (Araki et al., 2004, Science 305:1010-1013). Protein and mRNA analysis. Immunoprecipitations and western blot analysis were performed by standard methods using antibodies directed against total AMPK, phosphorylated AMPK, total ACC or phosphorylated ACC that were obtained from Cell Signaling Technology (Beverley, Mass.). The phospho-AMPK antibody detects endogenous AMPK α1 and α2 when phosphorylated at threonine 172. The LKB1 antibody was purchased from Upstate (Lake Placid, N.Y.). Quantitative RT-PCR analysis was performed using Sybr-Green methodology on a model 7700 instrument (Applied Biosystems) as previously described (Araki et al., 2004, Science 305:1010-1013). Primer sequences were those used in previous studies (Motoshima, et al., 2006, J Physiol 574:63-71).
Resveratrol activation of AMPK in Neuro2a cells along with the crucial role of AMPK in promoting neurite outgrowth in these cells encouraged us to examine this pathway in primary neurons. […]

Row | SMILES | effect on resveratrol-induced AMPK phosphorylation (AMPK) | further results
1 | NC(=O)c1cccnc1 [Nam, nicotinamide] | none of the SIRT inhibitors | neurite protection after transection ([1]; 1 mM applied for 24 hours before neurite transection): had no effect
2 | O=C(O)c1ccc2c3c1cccc3c(=O)n1c3ccccc3nc21 [STO 609] | had no effect | 
3 | CC(NC(=O)c1ccccc1/N=C/c1c(O)ccc2ccccc12)c1ccccc1 (centres unmarked) [Sirtinol] | none of the SIRT inhibitors | effect on NAD-dependent axonal protection (NDAP) ([1]; neurons cultured in 1 mM NAD, Sirtinol 100 μM, 3AB 20 mM or siRNA lentivirus, 12 to 72 hr after transection): effectively blocked NDAP
4 | Oc1ccc(C=Cc2cc(O)cc(O)c2)cc1 [resveratrol] |  | axonal degradation after axotomy ([1]; 10~100 μM, treated prior to axotomy): decrease in axonal degradation that was comparable to that obtained using NAD; phosphorylation of AMPK and ACC (AMPK; E13.5 DRG sensory neurons, 10 μM): stimulated phosphorylation of AMPK and ACC
5 | O=C1CCc2c(ccc3ccccc23)O1 [splitomycin] | none of the SIRT inhibitors | 
